Test results: US8318794B2, “Method of use of porphyrins in preparing a medicament for sonodynamic therapy and a method of sonodynamic therapy using porphyrins” (Science Group Pty. Ltd., priority 2008, dated 2012)

Columns and labels:
S-180 sarcoma [1] = test: Animal Test A: SDT with dihydroporphin e4 in KM mouse S-180 sarcoma model; format: in vivo; settings: for Average Tumor Weights: 12 days after treatment
Experimental: The sound-sensitive agent, dihydroporphin e4, is prepared according to Chinese Patent No. 99119878.6. The agent is dissolved in water for injection in darkness to give a final concentration of 4 mg/mL. The resultant solution is stored at 4° C. in darkness.
The animal tumor model used in this study was the KM mouse S-180 sarcoma, which is one of the tumor models appointed by the China Food and Drug Administration (CFDA) for new anticancer drug testing. Mouse S-180 sarcoma cell line was commercially available from the Cancer Hospital affiliated to Sun Yat-sen University. The inbred strain of KM mice (female, about 18-20 g body weight) was bred and tested in a laboratory consistent with national standards for new drug tests (the Animal Experimental Centre of Guangzhou Chinese Traditional Medical University). The mouse S-180 sarcoma cell line was injected into and raised in the abdominal cavity of the KM mouse and regenerated 3 times by passing malignant ascites from one mouse to another to confirm their growth is stable.
The ultrasound having a frequency of 1.0 MHz and an adjustable power density in the range of 0.1-2.2 W/cm^2 is applied. The apparatus can emit parallel wave, continuous wave or discontinuous wave.
The ascites with S-180 cell suspension was drawn out from the abdomen of the third passage mouse, and germ-free physiological saline solution was added. The final concentration of the cell suspension was 1×10^7 cells/mL. 0.1 mL of the cell suspension was injected subcutaneously in the right axilla of the mouse to grow a solid tumor.
Three days later, a small mass with the average diameter of about 0.4 cm was seen and palpated on every implanted mouse axilla. These tumor-bearing mice are divided randomly into the following groups with 5 mice in each group: • 1) a blank control group (C); • 2) a ultrasound group (U), which are simply treated with ultrasound (having a frequency of 1.0 MHz and a power density of 1.6 W/cm^2) without injection of the sound-sensitive agent; • 3) a sound-sensitive agent group (E), which are simply injected with the sound-sensitive agent without treatment of ultrasound; • 4) a 0.4 group (EU1), which are injected with the sound-sensitive agent and subsequently treated with ultrasound having a frequency of 1.0 MHz and a power density of 0.4 W/cm^2; • 5) a 0.8 group (EU2), which are treated according to EU1 except using ultrasound having a power density of 0.8 W/cm^2; and • 6) a 1.6 group (EU3), which are treated according to EU1 except using ultrasound having a power density of 1.6 W/cm^2.
To prepare the mice for the experiment, the fur on the tumor-bearing area of the mice was removed with depilatory cream. For the E, EU1, EU2 and EU3 groups, the sound-sensitive agent was injected into each mouse abdominal cavity in a dose of 40 mg/kg in a dark room. The mice are kept in darkness.
Six hours after the injection, each mouse of the EU1, EU2 and EU3 groups and the U group is partially immerged in water with only their head remaining above the water surface. An ultrasound probe was then placed into the water to irradiate the tumor area at the above parameters for 3 minutes. The mice of each group are fed in a conventional way.
After treatment with SDT, primary tumor size were estimated by measuring perpendicular minor dimension (W) and major dimension (L) using sliding calipers every one or two days. Approximate tumor volume was calculated by the formula: W^2L×½.
12 days later, the mice are sacrificed by breaking the cervical vertebrae. The tumor tissues are separated and weighed on an electronic balance to calculate an average weight. Various groups are compared in terms of their respective average tumor weight at the 12th day.
In comparing the tumor weights of various groups, statistic analysis is performed using the Student's t test.

S-180 sarcoma [2] = test: Animal Test B: SDT with lysine form of tin chlorophyllin in KM mouse S-180 sarcoma model; format: in vivo
Experimental: The sound-sensitive agent was the amino acid form of tin chlorophyllin, wherein M is Sn^4+, R1 is a residue of lysine, and R2 is a residue of lysine; the agent was obtained according to the previous process. The agent was dissolved in 0.1 mol/L phosphate buffer (pH 7.2-7.4) in darkness to give a final concentration of 2 mg/mL. The resultant solution was stored at 4° C. in a dark and quiet place.
The same as used in the above Animal Test A.
The same as established in the above Animal Test A.
After four days, touchable tumors with the average diameter of about 0.6 cm are developed subcutaneously at the right axillae of the mice. These tumor-bearing mice are divided randomly into the following groups: • 1) a blank control group (C); • 2) a ultrasound group (U), which are simply treated with ultrasound (having a frequency of 1.0 MHz and a power density of 1.2 W/cm^2) without injection of the sound-sensitive agent; • 3) a sound-sensitive agent group (S), which are simply injected with the sound-sensitive agent without treatment of ultrasound; • 4) a 0.3 group (SU1), which are injected with the sound-sensitive agent and subsequently treated with ultrasound having a frequency of 1.0 MHz and a power density of 0.3 W/cm^2; • 5) a 0.6 group (SU2), which are treated according to SU1 except using ultrasound having a power density of 0.6 W/cm^2; and • 6) a 1.2 group (SU3), which are treated according to SU1 except using ultrasound having a power density of 1.2 W/cm^2.
A depilatory cream is applied to remove fur on the areas to be irradiated. For the S, SU1, SU2 and SU3 groups, the sound-sensitive agent is injected intraperitoneally to each mouse at a dose of 20 mg/kg in a dark room. The mice are then fed in darkness.
6 h after injection, each mouse of the SU1, SU2 and SU3 groups and the U group is partially immerged in water with only their head remaining above the water surface. An ultrasond probe was then placed into the water to irradiate the tumor area at the above parameters for 180 seconds. The mice of each group are fed in a conventional way.
The same as in the above Animal Test A.
15 days later, the mice are sacrificed by breaking the cervical vertebrae. The tumor tissues are separated and weighed on an electronic balance to calculate an average weight. Various groups are compared in terms of their respective average tumor weights at the 15th day.

[3] = tested on: right breast carcinoma, tumor metastasis in liver; test: Clinical case: SDT with lysine form of tin chlorophyllin; format: in vivo, human; settings: patient
Experimental: A patient with right breast carcinoma. […] 9, 2007 (see FIG. 5). The lysine form of tin chlorophyllin as indicated in the above animal test B was dissolved in 0.1 mol/L phosphate buffer (pH 7.4) and given to the patient through lingual absorption every day for 2 days. Total dose of the lysine form of tin chlorophyllin was 60 mg. After 24 h, the red light light-emitting diode (LED) was irradiated to the body surface followed by local ultrasound irradiating of the tumour area at the intensities of 2.0 W/cm^2 for 20 minutes in a water bathtub every day for 3 days. One week later, the treatment was repeated. After 3 cycles of SDT treatment with the lysine form of tin chlorophyllin, CT-PET scan on Jan.

Row | Substance | tumor growth (FIG. 2) (S-180 sarcoma [1]; SDT, ultrasound power density 0.4 W/cm^2-1.6 W/cm^2) | Average Tumor Weights (S-180 sarcoma [1]; group E: 40 mg/kg into abdominal cavity, no ultrasound) [g] | average tumor volume profile (FIG. 1) (S-180 sarcoma [1]; group E: 40 mg/kg, no ultrasound) | Average Tumor Weights (S-180 sarcoma [1]; group EU1: 40 mg/kg into abdominal cavity + ultrasound 1.0 MHz, 0.4 W/cm^2, 3 min, 6 h after injection) [g] | Average Tumor Weights (S-180 sarcoma [1]; group EU2: 40 mg/kg into abdominal cavity + ultrasound 1.0 MHz, 0.8 W/cm^2, 3 min, 6 h after injection) [g] | average tumor volume profile (FIG. 1) (S-180 sarcoma [1]; group EU3: 40 mg/kg + ultrasound 1.6 W/cm^2) | Average Tumor Weights (S-180 sarcoma [1]; group EU3: 40 mg/kg into abdominal cavity + ultrasound 1.0 MHz, 1.6 W/cm^2, 3 min, 6 h after injection) [g] | effect on the tumor (FIG. 4) (S-180 sarcoma [2]; SDT, ultrasound power density 0.3 W/cm^2-1.2 W/cm^2) | Average Tumor Weight (S-180 sarcoma [2]; group S: 20 mg/kg intraperitoneally, no ultrasound, 15 days after treatment) [g] | average tumor volume profile (FIG. 3) (S-180 sarcoma [2]; group S: 20 mg/kg, no ultrasound) | Average Tumor Weight (S-180 sarcoma [2]; group SU1: 20 mg/kg intraperitoneally + ultrasound 1.0 MHz, 0.3 W/cm^2, 180 s, 6 h after injection, 15 days) [g] | Average Tumor Weight (S-180 sarcoma [2]; group SU2: 20 mg/kg intraperitoneally + ultrasound 1.0 MHz, 0.6 W/cm^2, 180 s, 6 h after injection, 15 days) [g] | average tumor volume profile (FIG. 3) (S-180 sarcoma [2]; group SU3: 20 mg/kg + ultrasound 1.2 W/cm^2) | Average Tumor Weight (S-180 sarcoma [2]; group SU3: 20 mg/kg intraperitoneally + ultrasound 1.0 MHz, 1.2 W/cm^2, 180 s, 6 h after injection, 15 days) [g] | Blood Routine and chemistry tests ([3]; after 3 cycles of SDT) | symptom ([3]; after 3 cycles of SDT) | CT-PET scan of liver metastasis after 3 cycles of SDT ([3]; total dose 60 mg by lingual absorption, red LED light + ultrasound 2.0 W/cm^2, 20 min, daily for 3 days per cycle)
1 | dihydroporphin e4 | tumor growth is significantly inhibited | 1.8800 ± 0.3114 | slower increase compared with the blank control group | 0.7600 ± 0.0894 | 0.5800 ± 0.0837 | even slower tumor development | 0.5200 ± 0.0837 | – | – | – | – | – | – | – | – | – | –
2 | lysine form of tin chlorophyllin | – | – | – | – | – | – | – | killing effect on the tumor | 0.269 ± 0.331 | slower increase compared to the blank control group | 0.0435 ± 0.031 | 0.022 ± 0.008 | hardly increased during the first six days after the SDT treatment, and began to decrease from the 7th day, and noticeably lower at the 15th day than before the test | 0.011 ± 0.004 | normal result | much improved | the tumor shrank and the tumor metabolic activity was inhibited
